One data set has as its system U251 (glioma) cells. The experiment in a line: Antiproliferative sulforhodamine B assay, U251. Type of data set: cell-based. The conditions noted are these: Homo sapiens, U-251, 48 h treatment, SRB; for IC100: read-out: Total growth inhibition (TGI). (In general: Sulforhodamine B stains cellular protein and so reports cell mass.)
A further data set concerns MCF-7 (breast) cells. The experiment in a line: Antiproliferative sulforhodamine B assay, MCF-7. Type of data set: cell-based. As to conditions: Homo sapiens, MCF7, MCF-7 mammary, 48 h treatment, SRB; for IC100: read-out: Total growth inhibition (TGI).
In data set [1] the test system is NCI-ADR/RES (ovarian expressing phenotype multiple drugs resistance) cells. Nature of the data set: Antiproliferative sulforhodamine B assay, NCI-ADR/RES. Type of data set: cell-based. As to conditions: Homo sapiens, NCI-ADR/RES drug resistant ovary, 48 h treatment, SRB; for IC100: read-out: Total growth inhibition (TGI).
Method: (§1) The in vitro antiproliferative activity of populene analogues 2a–e and 3a–e was investigated toward nine human tumor cell lines [CNS (U251), breast (MCF-7), ovarian (NCI-ADR/RES, OVCAR-03), renal (786-0), non-small cell lung (NCI-H460), prostate (PC-3), colon (HT-29) and leukemia (k-562)] and one human normal cell line (HaCat, human keratinocytes). The populene D analogues were tested at concentrations between 0.25 and 250 µg/mL and doxorubicin (DOX 0.025–25 µg/mL) was used as positive control. […] To analyze the GI50 parameter, mean log GI50 was calculated by conversion of the GI50 values for each tumor cell line tested (not including the normal cell line HaCat) against a test compound and then these values were averaged.
(§2) Stock cultures were grown in 5 mL of RPMI 1640 (GIBCO BRL, Life Technologies) supplemented with 5% of fetal bovine serum. Penicillin:streptomycin (1,000 μg mL^−1:1,000 UI mL^‑1, 1 mL L^−1) was added to the experimental cultures.
(§3) Afterwards cells were fixed with 50% trichloroacetic acid and cell proliferation determined by spectrophotometric quantification (540 nm) of cellular protein content using sulforhodamine B assay[20]. Doxorubicin (0.025–25 mg/mL) was used as positive control. Three measurements were obtained at the beginning of incubation (time zero, T0) and 48 h post-incubation for compound-free (C) and tested (T) cells. Cell proliferation was determined according to the equation 100 × [(T − T0)/C − T0], for T0 < T ≤ C, and 100 × [(T − T0)/T0], for T ≤ T0 and a concentration-response curve for each cell line was plotted and, from these curves, GI50 (concentration causing 50% growth inhibition) and TGI (concentration that promotes total growth inhibition) were determined by means of non-linear regression analysis using software ORIGIN 8.0 (OriginLab Corporation) [20, 21] The average activity (mean of log GI50) of each compound tested was also determined using MS Excel software.
Another data set relates to 786-0 (renal) cells. The experiment in a line: Antiproliferative sulforhodamine B assay, 786-0. Type of data set: cell-based. As to conditions: Homo sapiens, 786-0 kidney, 48 h treatment, SRB; for IC100: read-out: Total growth inhibition (TGI).
The subject of another data set is PC-3 (prostate) cells. The experiment in a line: Antiproliferative sulforhodamine B assay, PC-3. Type of data set: cell-based. As to conditions: Homo sapiens, Prostate cell, 48 h treatment, SRB; for IC100: read-out: Total growth inhibition (TGI).
A further data set concerns OVCAR-3 (ovarian) cells. Nature of the data set: Antiproliferative sulforhodamine B assay, OVCAR-3. Type of data set: cell-based. As to conditions: Homo sapiens, OVCAR-3 ovary, 48 h treatment, SRB; for IC100: read-out: Total growth inhibition (TGI).
Another data set deals with HT-29 (colon) cells. The experiment in a line: Antiproliferative sulforhodamine B assay, HT-29. Type of data set: cell-based. As to conditions: Homo sapiens, 48 h treatment, SRB; for IC100: read-out: Total growth inhibition (TGI).
For a further data set, the system named is K-562 (leukemia) cells. The experiment in a line: Antiproliferative sulforhodamine B assay, K-562. Type of data set: cell-based. As to conditions: Homo sapiens, K562, 48 h treatment, SRB; for IC100: read-out: Total growth inhibition (TGI).
Data set [2] is described as follows: Antiproliferative sulforhodamine B assay, HaCat normal cell line. Type of data set: cell-based, human. The conditions noted are these: human; HaCat normal immortalized keratinocytes, 48 h treatment, SRB.
Method: as §1, §2, §3
In data set [3] the test system is HaCat (immortalized human keratinocytes). Described as above. Type of data set: cell-based. The conditions noted are these: 48 h treatment, SRB.
Method: as §1, §2, §3
Data set [4] concerns nine human tumor cell lines. The experiment in a line: Average antiproliferative activity over the tumor cell line panel (NCI criteria). Type of data set: cell-based. The conditions noted are these: for GI50: Homo sapiens, 48 h; for Cytostatic activity classified in words by NCI criteria on mean logGI50: weak 1.1-1.5, moderate 0-1.1, potent <0, inactive >1.5.
Method: as §1
(§4) Cells in 96-well plates (100 μL cells/well) were exposed to various concentrations of compounds 2a–d and 3a–d diluted in DMSO (0.25, 2.5, 25 and 250 μg/mL) at 37 °C, 5% of CO2 for 48 h. […] Afterwards cells were fixed with 50% trichloroacetic acid and cell proliferation determined by spectrophotometric quantification (540 nm) of cellular protein content using sulforhodamine B assay[20]. Doxorubicin (0.025–25 mg/mL) was used as positive control. Three measurements were obtained at the beginning of incubation (time zero, T0) and 48 h post-incubation for compound-free (C) and tested (T) cells. Cell proliferation was determined according to the equation 100 × [(T − T0)/C − T0], for T0 < T ≤ C, and 100 × [(T − T0)/T0], for T ≤ T0 and a concentration-response curve for each cell line was plotted and, from these curves, GI50 (concentration causing 50% growth inhibition) and TGI (concentration that promotes total growth inhibition) were determined by means of non-linear regression analysis using software ORIGIN 8.0 (OriginLab Corporation) [20, 21] The average activity (mean of log GI50) of each compound tested was also determined using MS Excel software.
Data set [5] has as its system NCI-H460 (lung, non-small cells) cells. The experiment in a line: Antiproliferative sulforhodamine B assay, NCI-H460. The conditions noted are these: for GI50: Homo sapiens, NCI-H460, 48 h; for Total growth inhibition (TGI): NCI-H460 lung, 48 h treatment, SRB.
Method: (§5) The populene D analogues were tested at concentrations between 0.25 and 250 µg/mL and doxorubicin (DOX 0.025–25 µg/mL) was used as positive control. […] To analyze the GI50 parameter, mean log GI50 was calculated by conversion of the GI50 values for each tumor cell line tested (not including the normal cell line HaCat) against a test compound and then these values were averaged.
as §2, §3
Another data set concerns cervical cancer (HeLa). Set-up: method as in PMID 18553924. As to conditions: cited from earlier work.
In the next data set the test system is breast cancer (MCF-7). Set-up: method as in PMID 18553924. The conditions noted are these: cited from earlier work.
For the next data set, the system named is colon cancer (HT-29). Set-up: method as in PMID 18553924. The conditions noted are these: cited from earlier work.
For a further data set, the system named is oral cancer (KB). Set-up: method as in PMID 18553924. The conditions noted are these: cited from earlier work.
In the next data set the test system is B. subtilis. More on the design: method as in PMID 18553924. The conditions noted are these: cited from earlier work.
Where [6] appears, read: average of logGI50 (GI50 in μg/mL) over tumor cell lines tested, not including HaCat, read-out: Mean logGI50 (converted).
[7] abbreviates: class symbol by NCI's criteria on mean logGI50, read-out: Mean logGI50 activity class (NCI's criteria).

We go through 3 compounds from publication PMC6269118, “Populene D Analogues: Design, Concise Synthesis and Antiproliferative Activity” (Molecules, 2012).

Molecules are shown by their SMILES. Converted amounts (≈) assume the structure as drawn. Where two headings read alike, the source gives them in different places. A value given as a limit tells only on which side of the number the result lay.

Method for 786-0 (renal) cells: as §1, §2, §3
Method for HT-29 (colon) cells: as §5, §2, §3
Method for K-562 (leukemia) cells: as §1, §4
Method for MCF-7 (breast) cells: as §1, §2, §3
Method for OVCAR-3 (ovarian) cells: as §5, §2, §3
Method for PC-3 (prostate) cells: as §5, §2, §3
Method for U251 (glioma) cells: as §1, §2, §3

Usually melting point stands for the temperature, or range, at which the solid turns liquid. As to `CC1COC(C)(C)C2=C1c1ccc(O)cc1CC2` (centres unmarked) [3b, 1,4,4-Trimethyl-1,4,5,6-tetrahydro-2H-benzo[f]isochromen-8-ol], the melting point is 199 to 201 °C. In the data set with U251 (glioma) cells, the GI50 came out at 46.3 µg/mL (≈ 189 µM) and the IC100 was above 250 µg/mL. In the data set with MCF-7 (breast) cells, the GI50 turned out to be 108 µg/mL (≈ 441 µM) and the IC100 is above 250 µg/mL. Besides, in [1], the GI50 is above 250 µg/mL and the IC100 is above 250 µg/mL. Besides, in the data set with 786-0 (renal) cells, the GI50 turned out to be 36.8 µg/mL (≈ 151 µM) and the IC100 is above 250 µg/mL. For the same compound, in the data set with PC-3 (prostate) cells, the GI50 is above 250 µg/mL and the IC100 was above 250 µg/mL. Besides, in the data set on OVCAR-3 (ovarian) cells, the GI50 was above 250 µg/mL and the IC100 was above 250 µg/mL. Further, in the data set on HT-29 (colon) cells, the GI50 is 78.4 µg/mL (≈ 321 µM) and the IC100 is above 250 µg/mL. Moreover, in the data set with K-562 (leukemia) cells, the GI50 stood at 41.2 µg/mL (≈ 169 µM) and the IC100 was above 250 µg/mL. The compound further yielded a GI50 at 48 h in data set [2] above 250 µg/mL. Further, the “Total growth inhibition (TGI)” value in [3] was above 250 µg/mL. The GI50 in data set [4] (setting [6]) is above 100 µg/mL. Moreover, the GI50 in [4] (setting [7]) was above 31.6 µg/mL. Besides, the “Cytostatic activity classified in words by NCI criteria on mean logGI50” value in [4] was “inactive”. Also, in data set [5], the GI50 was 41.4 µg/mL (≈ 169 µM) and the “Total growth inhibition (TGI)” value was above 250 µg/mL.
For the compound `CC1COC(C)(C)C2=C1c1cc(O)ccc1CC2` (centres unmarked) [3c, 1,4,4-Trimethyl-1,4,5,6-tetrahydro-2H-benzo[f]isochromen-9-ol], the melting point fell in the range of 160 to 162 °C. Also, in the data set on U251 (glioma) cells, the GI50 amounted to 27.8 µg/mL (≈ 114 µM) and the IC100 is 67.9 µg/mL. Besides, in the data set with MCF-7 (breast) cells, the GI50 is 24.7 µg/mL (≈ 101 µM) and the IC100 worked out at 45 µg/mL. Besides, in data set [1], the GI50 amounted to 25 µg/mL (≈ 102 µM) and the IC100 amounted to 200 µg/mL. Besides, in the data set on 786-0 (renal) cells, the GI50 was 24.6 µg/mL (≈ 101 µM) and the IC100 amounted to 43 µg/mL. For the same compound, in the data set on PC-3 (prostate) cells, the GI50 was determined as 24.5 µg/mL (≈ 100 µM) and the IC100 is 51.8 µg/mL. In the data set on OVCAR-3 (ovarian) cells, the GI50 stood at 1.8 µg/mL (≈ 7.37 µM) and the IC100 was determined as 31.5 µg/mL. Further, in the data set on HT-29 (colon) cells, the GI50 was found to be 22.9 µg/mL (≈ 93.7 µM) and the IC100 was found to be 53.3 µg/mL. Besides, in the data set on K-562 (leukemia) cells, the GI50 came out at 8.7 µg/mL (≈ 35.6 µM) and the IC100 was 39.2 µg/mL. The compound further had a GI50 at 48 h in data set [2] of 3.6 µg/mL (≈ 14.7 µM). In addition, the “Total growth inhibition (TGI)” value in data set [3] was above 250 µg/mL. For the same compound, the GI50 in data set [4] (setting [6]) is 14.1 µg/mL (≈ 57.8 µM). The GI50 in data set [4] (setting [7]) lay in the range of 12.6 to 31.6 µg/mL (≈ 51.5 to 129 µM). In addition, the “Cytostatic activity classified in words by NCI criteria on mean logGI50” value in data set [4] is listed as “weak”. In addition, in [5], the GI50 is 24.2 µg/mL (≈ 99 µM) and the “Total growth inhibition (TGI)” value turned out to be 45.9 µg/mL.
For orientation: IC50 means the concentration at which inhibition is half-maximal. For orientation: MIC means the smallest concentration in the dilution series that meets the test's criterion for growth inhibition. As for `Cc1cc2c(c(O)c1O)[C@H](C)CC1=C2[C@@H](C)COC1(C)C` [Populene D], the IC50 is given as 1.85 µg/mL (≈ 6.41 µM) in the data set with cervical cancer (HeLa), 0.95 µg/mL (≈ 3.29 µM) in the data set on breast cancer (MCF-7), 2.37 µg/mL (≈ 8.22 µM) in the data set with colon cancer (HT-29) and 3.10 µg/mL (≈ 10.7 µM) with oral cancer (KB). For the same compound, the minimum inhibitory concentration (MIC) in the data set on B. subtilis is recorded as 4.69 µg/mL (≈ 16.3 µM).
